Experimental findings from PMC3326533 (Cell, 2008) are described below.

This assay has as its target XPD (S. acidocaldarius) (Sulfolobus acidocaldarius, UniProt Q4JC68). Conditions: ssDNA-stimulated; temperature and pH not stated here.

XPD (S. acidocaldarius), sequence (Q4JC68 whole entry): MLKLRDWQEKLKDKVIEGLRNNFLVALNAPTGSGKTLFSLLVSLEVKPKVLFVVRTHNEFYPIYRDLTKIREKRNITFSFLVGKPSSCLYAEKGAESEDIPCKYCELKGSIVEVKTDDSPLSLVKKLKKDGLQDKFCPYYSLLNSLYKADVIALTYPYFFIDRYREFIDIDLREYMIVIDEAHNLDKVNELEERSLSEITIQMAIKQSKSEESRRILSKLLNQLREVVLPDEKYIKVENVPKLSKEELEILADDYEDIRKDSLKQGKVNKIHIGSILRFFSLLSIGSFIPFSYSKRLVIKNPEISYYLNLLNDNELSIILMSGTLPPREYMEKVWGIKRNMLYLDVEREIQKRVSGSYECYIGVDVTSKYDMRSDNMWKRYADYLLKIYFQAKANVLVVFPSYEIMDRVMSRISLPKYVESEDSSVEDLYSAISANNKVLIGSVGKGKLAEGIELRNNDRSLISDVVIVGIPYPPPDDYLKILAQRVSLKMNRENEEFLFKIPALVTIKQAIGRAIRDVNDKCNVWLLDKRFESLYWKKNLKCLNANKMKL

As for `Nc1ncnc2c1ncn2[C@@H]1O[C@H](COP(=O)(O)OP(=O)(O)OP(=O)(O)O)[C@@H](O)[C@H]1O` [ATP], the ATPase rate entry is “Plot of the ssDNA-stimulated ATPase activities of the indicated wild-type and mutant proteins”.
